{"source": "patent US12516288B2", "about": "“Method for producing enteric neural precursors” (Kyoto University, priority 2018, dated 2026)", "key": {"[1]": {"system": "artificial intestinal tract formed from an intestinal organoid", "test": "Organ bath assay: contractile and relaxant responses of artificial intestinal tract to electrical stimulation", "design": "species or system human"}, "[2]": {"system": "vagal neural crest cells", "test": "Study on composition of enteric neural precursor medium (NRG1 and/or GDNF not added)", "format": "cell-based, human", "conditions": "for cell proliferation: enteric neural precursor medium without the named factor (factor-free conditions)", "experimental": "The medium was aspirated and replaced with PBS. Then, the cells were detached using a cell scraper. The detached cell mass was dissociated by pipetting in Accutase® (Innovative Cell Technologies, Inc.). Then, MACS® Buffer (Miltenyi Biotec) was added thereto, and the cells were prepared into single cells through a 40 µm cell strainer. The obtained cell suspension was centrifuged at 300×g for 3 minutes. Then, the supernatant was removed, and the cells were suspended in an enteric neural precursor medium. The enteric neural precursor medium used was a mixture of solutions A and B of Stem Fit® AK03N containing 10 μM SB431542 (FUJIFILM Wako Pure Chemical Corp.), 1 μM CHIR99021 (Axon MedChem), 1 μM retinoic acid (FUJIFILM Wako Pure Chemical Corp.), 100 ng/mL neuregulin 1 (NRG1) (PeproTech, Inc.) and […] glial cell-derived neurotrophic factor (GDNF) (FUJIFILM Wako Pure Chemical Corp.). For adherent culture, Matrigel® (Corning Inc.) was added at 2% to the cell suspension, which was then cultured using a multiwell plate (Corning Inc.). For suspension culture, a multiwell plate (Corning Inc.) treated for low cell adhesion was used. The culture in both cases was carried out at 37° C. under 5% CO2.\nVagal neural crest cells were cultured in an enteric neural precursor medium under the same conditions as in Test Example 4 except that NRG1 and/or GDNF was not added to the enteric neural precursor medium. The cells were observed under a fluorescence microscope (BZ-X700, Keyence Corp.). Also, flow cytometry analysis was conducted by the same method as in Test Example 5."}}, "note": "Structures can show the parent of a compound that is named as a salt. Where two headings read alike, the source gives them in different places."}
{"molecule": "COC(=O)[C@@H](N)CCCN=C(N)N[N+](=O)[O-].Cl", "note": "[NG-nitro-L-arginine methyl ester hydrochloride]", "values": [{"measurement": "relaxant response dependent on electrical stimulation", "setting": "[1]; after atropine, phenoxybenzamine, propranolol, concentration not given", "value": "disappeared"}]}
{"molecule": "CN1[C@@H]2CC[C@H]1C[C@@H](OC(=O)C(CO)c1ccccc1)C2", "note": "(some centres unmarked) [atropine sulfate monohydrate]", "values": [{"measurement": "contractile response to electrical stimulation", "setting": "[1]", "value": "partially canceled"}]}
{"molecule": "CC(COc1ccccc1)N(CCCl)Cc1ccccc1", "note": "(centres unmarked) [phenoxybenzamine hydrochloride]", "values": [{"measurement": "contractile response to electrical stimulation", "setting": "[1]", "value": "partially canceled"}]}
{"molecule": "CC(C)NCC(O)COc1cccc2ccccc12", "note": "(centres unmarked) [propranolol hydrochloride]", "values": [{"measurement": "contractile response to electrical stimulation", "setting": "[1]; addition of 10 μM, strip of artificial intestinal tract in Krebs solution", "value": "partially canceled"}]}
{"molecule": "NC1=N[C@H](O)[C@H]2[C@H]3O[C@]4(O)O[C@@H]([C@@H](O)[C@@]2(N1)[C@@H]4O)[C@]3(O)CO", "note": "[tetrodotoxin]", "values": [{"measurement": "cancelation of the contractile response by atropine, phenoxybenzamine or propranolol", "setting": "[1]", "value": "disappeared"}]}
{"molecule": "NRG1: EGF-like growth factor encoded by NRG1 gene; activates downstream signaling by binding to ERBB3 and ERBB4 (protein, listed as Homo sapiens) MSERKEGRGKGKGKKKERGSGKKPESAAGSQSPALPPRLKEMKSQESAAGSKLVLRCETSSEYSSLRFKWFKNGNELNRKNKPQNIKIQKKPGKSELRINKASLADSGEYMCKVISKLGNDSASANITIVESNEIITGMPASTEGAYVSSESPIRISVSTEGANTSSSTSTSTTGTSHLVKCAEKEKTFCVNGGECFMVKDLSNPSRYLCKCPNEFTGDRCQNYVMASFYKHLGIEFMEAEELYQKRVLTITGICIALLVVGIMCVVAYCKTKKQRKKLHDRLRQSLRSERNNMMNIANGPHHPNPPPENVQLVNQYVSKNVISSEHIVEREAETSFSTSHYTSTAHHSTTVTQTPSHSWSNGHTESILSESHSVIVMSSVENSRHSSPTGGPRGRLNGTGGPRECNSFLRHARETPDSYRDSPHSERYVSAMTTPARMSPVDFHTPSSPKSPPSEMSPPVSSMTVSMPSMAVSPFMEEERPLLLVTPPRLREKKFDHHPQQFSSFHHNPAHDSNSLPASPLRIVEDEEYETTQEYEPAQEPVKKLANSRRAKRTKPNGHIANRLEVDSNTSSQSSNSESETEDERVGEDTPFLGIQNPLAASLEATPAFRLADSRTNPAGRFSTQEEIQARLSSVIANQDPIAV", "values": [{"measurement": "cell number necessary for conducting flow cytometry", "setting": "[2]; enteric neural precursor medium without the named factor", "value": "not obtained"}, {"measurement": "cell proliferation", "setting": "[2]", "value": "very slow"}]}
{"molecule": "GDNF: factor encoded by GDNF gene; acts as an agonist of GFRα1 and RET (protein, UniProt P39905 78-211, looked up) Glial cell line-derived …: SPDKQMAVLPRRERNRQAAAANPENSRGKGRRGQRGKNRGCVLTAIHLNVTDLGLGYETKEELIFRYCSGSCDAAETTYDKILKNLSRNRRLVSDKVGQACCRPIAFDDDLSFLDDNLVYHILRKHSAKRCGCI", "values": [{"measurement": "cell proliferation", "setting": "[2]", "value": "slower than that under the conditions involving GDNF"}]}
